Data on 27 compounds can be found in ChEMBL document CHEMBL5042524, “Discovery of Novel Histone Deacetylase 6 (HDAC6) Inhibitors with Enhanced Antitumor Immunity of Anti-PD-L1 Immunotherapy in Melanoma” (J Med Chem, 2022).

By IC50 is commonly meant the concentration that gives 50% inhibition. As a reminder, the pIC50 is the negative decadic logarithm of the IC50, by convention in mol/L.

pIC50: −log10 of the molar value. Some results are limits rather than exact numbers.

One data set concerns the target Histone deacetylase. The data set can be described thus: Inhibition of HDAC in human HeLa nuclear extracts using fluorometric substrate incubated for 30 mins by fluorescence plate reader analysis. The format is cell-based.
Another data set deals with Histone deacetylase 1 (Homo sapiens, UniProt Q13547). The data set is described as follows: Inhibition of recombinant human HDAC1 expressed in baculovirus expression system using Ac-Leu-Gly-Lys (Ac)-AMC as substrate preincubated for 5 mins followed by substrate addition and measured after 30 mins by fluorescence microtiter plate reader assay.
For a further data set, the target named is Histone deacetylase 3 (Homo sapiens, UniProt O15379). The data set can be described thus: Inhibition of recombinant human His-tagged HDAC3 expressed in baculovirus insect cells using Ac-Leu-Gly-Lys (Ac)-AMC as substrate preincubated for 5 mins followed by substrate addition and measured after 30 mins by fluorescence microtiter plate reader assay.
The target in data set [1] is T1, Protein deacetylase HDAC6 (Homo sapiens, UniProt Q9UBN7).
T1 sequence (Q9UBN7 whole entry): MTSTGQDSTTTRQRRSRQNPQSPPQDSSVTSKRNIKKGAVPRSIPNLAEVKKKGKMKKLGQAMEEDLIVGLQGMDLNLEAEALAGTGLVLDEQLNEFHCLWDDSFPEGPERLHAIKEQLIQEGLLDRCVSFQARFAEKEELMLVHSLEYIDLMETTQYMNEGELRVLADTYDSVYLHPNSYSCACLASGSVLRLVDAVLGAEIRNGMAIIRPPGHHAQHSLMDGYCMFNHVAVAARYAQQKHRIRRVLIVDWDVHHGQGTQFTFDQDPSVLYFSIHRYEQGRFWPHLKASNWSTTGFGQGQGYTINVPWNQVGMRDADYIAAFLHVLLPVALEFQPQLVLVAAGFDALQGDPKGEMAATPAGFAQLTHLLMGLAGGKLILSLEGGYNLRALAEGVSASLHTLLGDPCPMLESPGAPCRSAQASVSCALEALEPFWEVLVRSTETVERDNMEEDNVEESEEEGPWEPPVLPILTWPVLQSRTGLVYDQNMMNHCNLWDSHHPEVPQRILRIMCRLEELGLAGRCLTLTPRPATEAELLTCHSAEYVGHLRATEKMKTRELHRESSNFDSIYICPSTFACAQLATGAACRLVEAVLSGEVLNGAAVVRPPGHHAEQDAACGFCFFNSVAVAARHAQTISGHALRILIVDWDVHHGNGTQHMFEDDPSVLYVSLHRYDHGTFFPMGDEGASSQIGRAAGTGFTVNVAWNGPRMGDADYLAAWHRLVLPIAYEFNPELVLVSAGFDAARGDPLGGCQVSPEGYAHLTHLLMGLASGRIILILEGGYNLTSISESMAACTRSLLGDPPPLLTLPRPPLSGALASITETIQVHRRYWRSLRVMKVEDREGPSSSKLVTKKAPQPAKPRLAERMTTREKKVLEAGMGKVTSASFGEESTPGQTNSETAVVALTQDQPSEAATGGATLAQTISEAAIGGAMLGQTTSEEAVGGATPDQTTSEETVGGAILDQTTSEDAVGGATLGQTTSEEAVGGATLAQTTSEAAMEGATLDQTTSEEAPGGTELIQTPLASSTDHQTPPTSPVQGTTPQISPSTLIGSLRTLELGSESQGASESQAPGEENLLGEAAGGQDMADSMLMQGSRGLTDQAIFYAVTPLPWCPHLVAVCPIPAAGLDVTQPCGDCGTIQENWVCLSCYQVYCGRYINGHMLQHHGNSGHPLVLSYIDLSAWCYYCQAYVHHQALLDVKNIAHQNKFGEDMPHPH
The data set can be described thus: Inhibition of recombinant human N-terminal GST tagged HDAC6 expressed in baculovirus infected Sf9 insect cells using Ac-Leu-Gly-Lys (Ac)-AMC as substrate preincubated for 5 mins followed by substrate addition and measured after 30 mins by fluorescence microtiter plate reader assay.

For another data set, the target named is T2, Histone deacetylase 8 (Homo sapiens, UniProt Q9BY41).
T2 sequence (Q9BY41 whole entry): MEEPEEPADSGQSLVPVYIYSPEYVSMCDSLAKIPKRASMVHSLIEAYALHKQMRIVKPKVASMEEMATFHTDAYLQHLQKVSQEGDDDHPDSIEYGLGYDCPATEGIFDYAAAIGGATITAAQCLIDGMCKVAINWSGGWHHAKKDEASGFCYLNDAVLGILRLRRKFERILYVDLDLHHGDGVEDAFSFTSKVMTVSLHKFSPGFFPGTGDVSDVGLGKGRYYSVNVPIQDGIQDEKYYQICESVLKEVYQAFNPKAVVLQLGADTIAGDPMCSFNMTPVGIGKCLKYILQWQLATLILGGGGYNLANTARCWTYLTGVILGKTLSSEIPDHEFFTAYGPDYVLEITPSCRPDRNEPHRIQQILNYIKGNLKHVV
The data set is described as follows: Inhibition of full length recombinant human C-terminal His tagged HDAC8 expressed in baculovirus infected Sf9 insect cells using Ac-Leu-GlyLys (Tfa)-AMC as substrate preincubated for 5 mins followed by substrate addition and measured after 30 mins by fluorescence microtiter plate reader assay.

Another data set relates to HCT-116. The data set can be described thus: cells. The class given is functional, cell-based. Particulars: Homo sapiens, HCT-116, 48 h.
The next data set relates to A549. The data set is described as follows: cells. The format is functional, cell-based. Particulars: Homo sapiens, A549, 48 h.
Another data set relates to MCF7. The data set is described as follows: cells. The note with it: Homo sapiens, MCF7, 48 h. The class given is functional, cell-based.
The nature of data set [2]: Cytotoxicity against human Jurkat cells assessed as reduction in cell viability incubated for 72 hrs by CCK-8 assay. On the technique in general: Formazan colour is commonly taken as a measure of viable cells.
The next data set concerns B16-F10. The data set can be described thus: cells. The note with it: Mus musculus, B16-F10, 48 h. The format is functional, cell-based.
Data set [3] is described as follows: Antiproliferative activity against human YCC-11 cells assessed as cell growth inhibition. The class given is functional, cell-based.
The nature of data set [4]: Antiproliferative activity against human YCC3/7 cells assessed as cell growth inhibition. The class given is functional, cell-based.

Sequence of Histone deacetylase 3 (O15379 whole entry): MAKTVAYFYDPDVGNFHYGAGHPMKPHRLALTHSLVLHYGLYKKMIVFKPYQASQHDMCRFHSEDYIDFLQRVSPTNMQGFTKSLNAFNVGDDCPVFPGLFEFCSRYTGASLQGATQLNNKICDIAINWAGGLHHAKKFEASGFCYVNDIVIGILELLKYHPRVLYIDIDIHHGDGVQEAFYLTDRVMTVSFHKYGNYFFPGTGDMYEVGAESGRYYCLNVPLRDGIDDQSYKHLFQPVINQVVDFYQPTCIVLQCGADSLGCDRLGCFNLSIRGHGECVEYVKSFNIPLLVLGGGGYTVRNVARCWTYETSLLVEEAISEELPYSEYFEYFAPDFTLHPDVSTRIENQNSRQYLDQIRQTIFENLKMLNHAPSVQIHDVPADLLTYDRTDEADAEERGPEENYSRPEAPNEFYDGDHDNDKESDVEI
Sequence of Histone deacetylase 1 (Q13547 whole entry): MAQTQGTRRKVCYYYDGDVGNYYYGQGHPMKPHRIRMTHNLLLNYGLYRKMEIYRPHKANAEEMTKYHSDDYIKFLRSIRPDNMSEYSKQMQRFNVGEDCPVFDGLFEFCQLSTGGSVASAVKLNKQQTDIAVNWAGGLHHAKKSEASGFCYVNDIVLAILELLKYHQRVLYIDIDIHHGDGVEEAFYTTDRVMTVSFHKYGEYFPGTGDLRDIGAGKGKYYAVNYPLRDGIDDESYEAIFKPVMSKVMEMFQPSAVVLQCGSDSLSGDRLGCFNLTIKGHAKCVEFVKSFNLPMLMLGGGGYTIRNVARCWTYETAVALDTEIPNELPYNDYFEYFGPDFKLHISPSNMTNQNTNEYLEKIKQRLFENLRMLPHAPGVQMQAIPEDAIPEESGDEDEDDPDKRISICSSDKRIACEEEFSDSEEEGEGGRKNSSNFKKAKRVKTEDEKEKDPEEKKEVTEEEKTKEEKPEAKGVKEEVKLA
Description for A549: Antiproliferative activity against human A549 cells assessed as inhibition of cell proliferation measured after 48 hrs by MTT assay
Description for B16-F10: Antiproliferative activity against mouse B16-F10 cells assessed as inhibition of cell proliferation measured after 48 hrs by MTT assay
Description for HCT-116: Antiproliferative activity against human HCT-116 cells assessed as inhibition of cell proliferation measured after 48 hrs by MTT assay
Description for MCF7: Antiproliferative activity against human MCF7 cells assessed as inhibition of cell proliferation measured after 48 hrs by MTT assay

At Histone deacetylase, `COc1ccc(-c2ncc(/C=C/C(=O)NO)s2)c(OC)c1OC` came in with an IC50 of 0.11 µM. Besides, the pIC50 on Histone deacetylase 1 is 5.30; on Histone deacetylase 3 it was 5.21; in data set [1], 5.96; at Histone deacetylase 8, 5.59; with HCT-116, 5.49; with A549 it was below 5.00. For the same compound, the pIC50 is 5.32 with MCF7, below 5.00 in the data set on B16-F10, 5.42 in data set [3] and 5.09 in data set [4]. The IC50 at 72 h in data set [2] was determined as 0.59 µM.
In turn, `Cc1ccc(-c2ncc(/C=C/C(=O)Nc3ccccc3N)s2)cc1` returned an IC50 on Histone deacetylase of 0.66 µM. The results for the pIC50 (on Histone deacetylase 3; in [1]) were 5.99 and below 5.00, respectively.
On to `Nc1ccccc1NC(=O)c1ccc(CNC(=O)OCc2cccnc2)cc1` [ENTINOSTAT], for which the pIC50 in data set [3] is 5.26; in [4], 4.89.
`COc1cc(-c2ncc(C(=O)NCCCCCCC(=O)NO)s2)cc(OC)c1OC` had an IC50 against Histone deacetylase of 0.67 µM. The results for the pIC50 (at Histone deacetylase 3; in [1]) were below 5.00 and 6.10, respectively.
On the same counts, the results for `COc1ccc(-c2ncc(/C=C/C(=O)Nc3ccccc3N)s2)c(OC)c1OC` are 0.63 µM, 5.81 and below 5.00.
`COc1ccc(-c2ncc(C(=O)NCCCC(=O)NO)s2)c(OC)c1` registered a half-maximal inhibitory concentration (IC50) at Histone deacetylase of 0.73 µM.
`COc1cccc(-c2ncc(/C=C/C(=O)Nc3ccccc3N)s2)c1` yielded a half-maximal inhibitory concentration (IC50) at Histone deacetylase of 0.58 µM. Besides, the pIC50 on Histone deacetylase 1 is 4.87; on Histone deacetylase 3 it was 5.31; in [1], 5.02; at Histone deacetylase 8, 4.87; in the data set on HCT-116 it was 5.41; in the data set with A549 it was 5.12. The pIC50 in the data set with MCF7 was 5.22; in the data set with B16-F10 it was below 5.00; in data set [3] it was 5.07; in data set [4], 5.00. For the same compound, the IC50 at 72 h in data set [2] was 0.56 µM.
On Histone deacetylase, `CC(C)(C)OC(=O)Nc1ccc(-c2ncc(C(=O)NCCCCCCC(=O)NO)s2)cc1` showed an IC50 of 0.29 µM. Besides, the negative logarithm of the IC50 (pIC50) on Histone deacetylase 1 was 5.03; on Histone deacetylase 3, 5.23; in data set [1], 7.17; on Histone deacetylase 8, 5.28; in the data set on HCT-116 it was 5.54; in the data set on A549 it was below 5.00. The pIC50 is below 5.00 in the data set on MCF7, below 5.00 in the data set on B16-F10, 5.68 in [3] and 4.99 in data set [4]. In data set [2], the IC50 at 72 h is 1.34 µM.
At Histone deacetylase, `O=C(CCCCCCNC(=O)c1cnc(-c2ccc(F)cc2)s1)NO` yielded an IC50 of 1.02 µM.
Compound `COc1ccc(-c2ncc(/C=C/C(=O)NO)s2)cc1` registered an IC50 at Histone deacetylase of 0.13 µM. For the same compound, the pIC50 is 5.36 at Histone deacetylase 1; 5.29 on Histone deacetylase 3; 6.04 in [1]; 5.43 at Histone deacetylase 8; 5.39 with HCT-116; below 5.00 in the data set on A549. Moreover, the pIC50 in the data set on MCF7 is 5.27; in the data set with B16-F10, below 5.00; in [3], 5.51; in [4] it was 5.38. In addition, the IC50 at 72 h in [2] is 0.74 µM.
In the case of `COc1cccc(-c2ncc(/C=C/C(=O)NO)s2)c1`, at Histone deacetylase, the IC50 amounted to 0.66 µM.
`O=C(CCCCCCNC(=O)c1cnc(-c2ccc(OC(F)(F)F)cc2)s1)NO` showed an IC50 on Histone deacetylase of 0.7 µM. Further, the pIC50 on Histone deacetylase 3 is 5.09; in [1], 6.15.
On Histone deacetylase, `O=C(CCCCCCNC(=O)c1cnc(-c2ccc(Oc3ccccc3)cc2)s1)NO` came in with an IC50 of 0.8 µM.
Consider `COc1cc(-c2ncc(/C=C/C(=O)NO)s2)cc(OC)c1OC`, for which, on Histone deacetylase, the IC50 came out at 0.1 µM. Besides, the pIC50 on Histone deacetylase 1 is 5.49; at Histone deacetylase 3, 5.12; in data set [1], 5.68; on Histone deacetylase 8, 5.65; in the data set on HCT-116, 5.74; with A549, 5.51. In addition, the pIC50 in the data set on MCF7 was 5.89; with B16-F10, 5.29; in data set [3], 5.32; in [4], 5.29. Also, in data set [2], the IC50 at 72 h was 0.36 µM.
As to `COc1cc(OC)cc(-c2ncc(/C=C/C(=O)NO)s2)c1`, the half-maximal inhibitory concentration (IC50) on Histone deacetylase was determined as 0.72 µM. Moreover, the results for the pIC50 (at Histone deacetylase 3; in [1]) were below 5.00 and 6.03, respectively.
For `COc1ccc(-c2ncc(C(=O)NCCCCCC(=O)NO)s2)c(OC)c1`, the IC50 on Histone deacetylase came out at 0.35 µM. The pIC50 was 4.95 at Histone deacetylase 1; 4.91 at Histone deacetylase 3; 7.12 in [1]; 4.70 at Histone deacetylase 8; 5.66 with HCT-116; 5.17 in the data set on A549. The negative logarithm of the IC50 (pIC50) is 5.55 in the data set on MCF7, 5.53 with B16-F10, 5.19 in [3] and 5.06 in data set [4]. Further, in [2], the IC50 at 72 h worked out at 1.72 µM.
Turning to `Cc1cccc(-c2ncc(/C=C/C(=O)Nc3ccccc3N)s2)c1`, on Histone deacetylase, the half-inhibitory concentration (IC50) stood at 0.81 µM.
On the same count and under the same terms, the value for `O=C(/C=C/c1cnc(-c2ccc3c(c2)OCO3)s1)NO` was 0.89 µM.
Turning to `COc1ccc(-c2ncc(C(=O)NCCCCC(=O)NO)s2)c(OC)c1`, the half-maximal inhibitory concentration (IC50) on Histone deacetylase was determined as 0.69 µM. Moreover, the figures for the pIC50 (at Histone deacetylase 3; in data set [1]) were 5.00 and 6.21, respectively.
As to `O=C(/C=C/c1cnc(-c2ccc(N3CCOCC3)cc2)s1)NO`, the IC50 against Histone deacetylase is 0.55 µM. The pIC50 is below 5.00 on Histone deacetylase 3 and 6.01 in data set [1].
`Nc1ccccc1NC(=O)/C=C/c1cnc(-c2ccc3cc[nH]c3c2)s1`: on Histone deacetylase, the half-inhibitory concentration (IC50) was determined as 0.63 µM. In addition, the pIC50 is 5.69 at Histone deacetylase 3 and below 5.00 in [1].
Compound `O=C(CCCCCCNC(=O)c1cnc(-c2ccc(Cl)cc2)s1)NO` displayed a half-maximal inhibitory concentration (IC50) against Histone deacetylase of 0.96 µM.
The same measure, in the same setting: the value for `O=C(/C=C/c1cnc(-c2ccc(F)cc2F)s1)NO` was 0.94 µM.
For the compound `COc1ccc(-c2ncc(C(=O)NCCCCCCC(=O)NO)s2)cc1`, the IC50 against Histone deacetylase was determined as 0.71 µM. Besides, the pIC50 on Histone deacetylase 3 was below 5.00; in [1], 6.21.
Compound `O=C(/C=C/c1cnc(-c2ccc3c(c2)OCCO3)s1)NO` returned an IC50 on Histone deacetylase of 0.68 µM. The figures for the pIC50 (on Histone deacetylase 3; in data set [1]) were below 5.00 and 6.11, respectively.
The like results for `COc1ccc(-c2ncc(/C=C/C(=O)Nc3ccccc3N)s2)cc1` were, in that order, 0.71 µM, 5.75 and below 5.00.
The compound `COc1cc(OC)cc(-c2ncc(C(=O)NCCCCCCC(=O)NO)s2)c1` registered a half-inhibitory concentration (IC50) against Histone deacetylase of 0.79 µM. Moreover, the pIC50 at Histone deacetylase 3 was 5.04; in [1], 6.12.
